Ends that are not written are not given here.
Tests used:
[1] = test system: S. aureus Newman; assay: Exoprotein and surface-associated protein production, Tricine SDS-PAGE; conditions: 1 μM, 16 h culture
Protocol: FIG. 6: Influence of the S. epidermidis pheromone and its derivatives on the production of exoproteins and surface-associated proteins in S. aureus Newman. (A) Exoproteins: basic medium was inoculated with 1/100 vol. of a preculture of S. aureus Newman. At the same time, the pheromone or one of its derivatives was added at a concentration of 1 μM. The peptides were dissolved in DMSO (dimethylsulfoxide); a control received only DMSO. Culture filtrates (20 μl) of the cultures harvested after 16 h of growth were applied to Tricine SDS-PAGE and stained with Coomassie Blue. (B) Surface-associated proteins: pellets of the centrifuged 16 h cultures were dissolved in SDS-PAGE loading buffer containing 1% SDS, boiled at 1000C for 5 min, and applied to Tricine SDS-PAGE after removal of insoluble material by centrifugation. […] (SEQ ID NO: 17); (6) control (with DMSO); (7) molecular weight standards.
The effect of the synthetic cyclic peptides on the production pattern of surface-associated proteins and exoproteins was investigated (for Exoprotein analysis of S. epidermidis see Experimental procedures).
The synthetic cyclic peptides were added at a concentration of 1 μM to a culture that was inoculated by 1/100 vol. of a preculture; the cultures were incubated for 16 h. […]

[2] = test system: S. epidermidis agr P3 promoter; conditions: peptide 200 nM; for Specific CAT activity: S. epidermidis, without peptide 12.5

| Substance | surface-associated proteins synthesized ([1]; cell pellets) | reduction of exoprotein production ([1]; culture filtrate) | effect on CAT activity [2] | Specific CAT activity [2] |
| --- | --- | --- | --- | --- |
| SVc[CASYF]: S. epidermidis pheromone lacking the original aspartate residue at the N-terminus (SVXASYF; thiolactone cyclisation; VARIANT (3) C-terminal cyclyzed through thioester linkage to cystine residue 3; listed as Staphylococcus epidermidis) | synthesized in higher amounts | most pronounced | very small stimulatory effect | 16.1 U/mg protein |
| SVCASYF (not fully specified (bridges); also: thioester linkage to Cys3; listed as Staphylococcus epidermidis) | – | – | – | 8.9 U/mg protein |
